This is an account of results in PMC13381803, “Phage-encoded factor stimulates DNA degradation by the Hna anti-phage defense system” (Nature Communications, 2026).

What all share (assay type): biochemical
The target of assay [1] is T1, Hna (Sinorhizobium meliloti, UniProt Q92XN4).
T1 construct: gene SMa2245; full length, 845 residues; recombinant E. coli (codon-optimised); N-terminal 6xHis-MBP-TEV tags cleaved with TEV; monomer, ATP-stabilised homodimer
Kind of assay: ssDNA cleavage time courses by capillary electrophoresis, […] ATP. The conditions noted are these: 10 mM MgCl2; pH 7.5; 37 °C; nuclease read-out, ATP binds helicase domain.

The target in assay [2] is T1, Hna. Kind of assay: malachite green phosphate release assay. The note with it: 20 µM ATP; 10 nM ssDNA; 10 mM MgCl2; pH 7.5; 37 °C.
Assay [3] addresses T2, Hna (Sinorhizobium meliloti, UniProt Q92XN4, P712A/D713A/E727A).
T2 construct: gene SMa2245; full length, 845 residues; recombinant E. coli (codon-optimised); N-terminal 6xHis-MBP-TEV tags cleaved with TEV; monomer, ATP-stabilised homodimer
Description: malachite green phosphate release assay. The note with it: ssDNA present; Mg2+; pH 7.5; 37 °C.

T1 sequence (Q92XN4 entry or part of it): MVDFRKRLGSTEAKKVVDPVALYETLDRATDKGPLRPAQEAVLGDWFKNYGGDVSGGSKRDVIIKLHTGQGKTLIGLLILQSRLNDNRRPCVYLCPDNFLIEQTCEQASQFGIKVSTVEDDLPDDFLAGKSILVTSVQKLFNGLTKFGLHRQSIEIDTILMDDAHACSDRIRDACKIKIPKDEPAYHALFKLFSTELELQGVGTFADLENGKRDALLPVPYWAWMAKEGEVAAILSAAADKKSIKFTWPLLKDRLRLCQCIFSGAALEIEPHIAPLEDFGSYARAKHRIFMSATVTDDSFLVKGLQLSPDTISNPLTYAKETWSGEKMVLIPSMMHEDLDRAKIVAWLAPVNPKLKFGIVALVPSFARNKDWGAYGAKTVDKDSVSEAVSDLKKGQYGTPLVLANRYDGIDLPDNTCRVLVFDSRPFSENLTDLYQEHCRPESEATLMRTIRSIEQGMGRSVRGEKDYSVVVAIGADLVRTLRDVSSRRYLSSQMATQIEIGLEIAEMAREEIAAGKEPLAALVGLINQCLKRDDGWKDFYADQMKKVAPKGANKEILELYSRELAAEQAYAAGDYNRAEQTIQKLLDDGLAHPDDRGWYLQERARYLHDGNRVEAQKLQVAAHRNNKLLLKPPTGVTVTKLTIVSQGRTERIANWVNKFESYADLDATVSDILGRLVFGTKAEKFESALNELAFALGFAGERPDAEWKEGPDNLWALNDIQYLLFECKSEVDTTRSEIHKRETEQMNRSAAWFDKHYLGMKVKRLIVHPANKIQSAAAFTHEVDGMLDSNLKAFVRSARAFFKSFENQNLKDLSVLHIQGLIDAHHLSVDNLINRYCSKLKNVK
T2 sequence (Q92XN4 entry or part of it P712A/D713A/E727A): as the sequence (Q92XN4 entry or part of it) above, with P712A, D713A, E727A counted along it

As to `Nc1ncnc2c1ncn2[C@@H]1O[C@H](COP(=O)(O)OP(=O)(O)OP(=O)(O)O)[C@@H](O)[C@H]1O` [ATP], at Hna [1], the “inhibition of ssDNA cleavage” value is recorded as “significant reduction in ssDNA cleavage across all concentrations of ATP tested”. For the same compound, the “malachite green phosphate release assay” value at Hna [2] was “Hna possesses minimal innate ATPase activity that is significantly enhanced by the inclusion of ssDNA”. The “ATPase activity (significant increase)” value at Hna [3] is “significant increase in ATP hydrolysis by PDE Hna”.
